Values quoted from earlier work, collected in patent publication US12472172B2, “Lomitapide for use in methods of treating hyperlipidemia and hypercholesterolemia in pediatric patients” (Amryt Pharmaceuticals Inc., priority 2020, dated 2025).

Conditions: adult

previously used fixed Qgut input: 17.9 L/h
SMILES: O=C(NC1CCN(CCCCC2(C(=O)NCC(F)(F)F)c3ccccc3-c3ccccc32)CC1)c1ccccc1-c1ccc(C(F)(F)F)cc1 [lomitapide, N-(2,2,2-trifluoroethyl)-9-[4-[4-[[[4′(trifluoromethyl)[1,1′-biphenyl]-2-yl]carbonyl]amino]-1-piperidinyl]butyl]-9H-fluorene-9-carboxamide]
